Data reported in patent publication US6479287B1, “Method for transformation of cotton and organogenic regeneration” (Mississippi State University, priority 2000, dated 2002).

Test system: cotton shoot initiation (cultivar Deltapine 50 hypocotyl explants)
Test: Dose response study: effect of aminoglycosides on cotton shoot initiation from hypocotyl explants on medium GA
Format: in vivo
Details: incorporated in medium GA, results after 1 month, kanamycin tested at 0-200 mg/l, geneticin at 0-20 mg/l
Description: Hypocotyl sections were placed horizontally on shoot initiation medium (GA). Explants were maintained for 6 weeks on this medium. Shoot primordia were visible on the acropetal ends of hypocotyl sections after 2 weeks. After 6 weeks, leaves were clearly visible. Shoot initiation has been observed in 7 commercial cultivars (Deltapine 50, Stoneville 474, Deltapine 5111, Tx 121, Suregrow 125, Fibermax 819, and Paymaster 1215) and 3 breeding lines, and the response ranged from 20-73% (percentage explants capable of initiating shoots per cultivar).
GA: semi-solid GMS plus an auxin like NAA (0.1-3.0 mg/l), a cytokinin like TDZ, or BA plus kinetin (0.1-2.5 mg/l) and 1-50 mg/l silver nitrate
The effect of the aminoglycosides kanamycin and geneticin on cotton shoot initiation were investigated. Kanamycin, at concentrations of 0.0, 50, 100, 150 and 200 mg/I, and geneticin at 0.0, 5.0, 10, 15 and 20 mg/l, were incorporated in medium GA. The experiment consisted of 3 replicate plates/treatment and 4 explants/replicate plates using the cultivar Deltapine 50. […] A geneticin concentration up to 20 mg/l was not inhibitory to shoot initiation.

| Compound | concentration inhibitory to shoot initiation |
| --- | --- |
| NC[C@H]1O[C@H](O[C@H]2[C@H](O)[C@@H](O[C@H]3O[C@H](CO)[C@@H](O)[C@H](N)[C@H]3O)[C@H](N)C[C@@H]2N)[C@H](O)[C@@H](O)[C@@H]1O [kanamycin] | 50 mg/L |
| CN[C@@H]1[C@@H](O)[C@@H](O[C@@H]2[C@@H](O)[C@H](O[C@H]3O[C@H]([C@@H](C)O)[C@@H](O)[C@H](O)[C@H]3N)[C@@H](N)C[C@H]2N)OC[C@]1(C)O [geneticin] | > 20 mg/L |
